Data from patent US10889554B2, “Excimer forming compounds” (THE GOVERNING COUNCIL OF THE UNIVERSITY OF TORONTO, priority 2013, dated 2021).

Key:
β-casein = target: T1, β-casein (Bos taurus, UniProt P02666); test: On-gel detection of proximally phosphorylated protein using GaCl3 complexes; assay type: binding
T1 construct: purchased Sigma Aldrich C6905-250MG
T1 sequence (P02666 16-224): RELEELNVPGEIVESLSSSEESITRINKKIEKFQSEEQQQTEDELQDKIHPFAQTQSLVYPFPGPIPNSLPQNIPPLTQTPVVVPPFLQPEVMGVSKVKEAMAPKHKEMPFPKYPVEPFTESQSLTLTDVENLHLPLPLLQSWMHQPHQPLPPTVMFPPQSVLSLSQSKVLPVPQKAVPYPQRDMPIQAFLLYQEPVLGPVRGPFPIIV
Protocol: (§1) Compound 8 was dissolved in 50 mM NaOAc buffer, pH 4.5, 50 mM NaCl, 10% DMSO and combined with 80, 160 or and 240 μM GaCl3 solutions. Each gel contained 4 lanes with equal amounts of BSA, ovalbumin (Ova), β-casein (β-cas) and lysozyme (Lyso) in each lane (left to right: 1, 0.5, 0.25 and 0.125 μg per protein per lane) (see FIG. 37). Gels were stained for 1 h with the sensor solution. Gels were first de-stained with 50 mM NaOAc buffer pH 4.5 for 2 h and then with 50 mM NaOAc buffer pH 4.0 20% acetonitrile for 40 h.
(§2) Compound 8 was dissolved in 100 mM NaOAc buffer, pH 4.5, 150 mM NaCl, 20% propylene glycol and combined with 10 and 15 μM GaCl3 solutions. Each gel contained 4 lanes with equal amounts of BSA, ovalbumin (Ova), β-casein (β-cas) and lysozyme (Lyso) in each lane (FIG. 40) left to right: 1, 0.5, 0.25 and 0.125 μg per protein per lane). Gels were stained for 1.5 h with the sensor solution. Destaining was performed for variable time (specified at the top) with 50 mM NaOAc, pH 4.0, 20% acetonitrile. Gels were rinsed with MiliQ water for 5 min prior to imaging. Images were acquired using ChemiDoc MP, using a 530 nm emission filter and UV trans excitation.
as §1, with “Compound 2” for “Compound 8”, “lane) (FIG. 42).” for “lane) (see FIG. 37).”, “h. […] However with the increased destaining time the intensity of β-casein band relative to other proteins was increasing, resulting in a 6.7-fold higher intensity over the distally phosphorylated protein ovalbumin. Lane containing 1 μg of each protein was analyzed (FIG. 43).” for “h.”
as §2, with “2” for “8”, “45)” for “40)”, “acetonitrile (see FIGS. 45 and 46).” for “acetonitrile.”

pYpY peptide = test: Detection of pY and pYpY peptides with non-pyrene excimer forming derivatives; assay type: binding; details: for excimer emission peak in response to pYpY peptide in fluorescence emission spectra / peak when pYpY spectra are divided by those of pY or buffer control: 250 μM Zn^2+ triflate complexes, 125 μM peptide, irradiated at 290 nm; for detection limit of pYpY peptide, selectively over pY peptide: 250 μM compound in complex with Zn^2+ (triflate salt), pH 7.5 50 mM HEPES, 10% DMSO
Protocol: Non-pyrene excimer forming derivatives (compounds 4-7) were synthesized and assessed for their ability to sense proximally phosphorylated peptides. All experiments for these derivatives were performed in pH 7.5 50 mM HEPES, 10% DMSO. 125 μM pY and pYpY peptides were combined with 250 μM of compounds 4, 5 and 6 (Zn^2+ triflate complexes), or buffer as background control, and the solution was irradiated at 290 nm and fluorescence emission scan was recorded. […] These peaks indicate that the spike in response to the addition of pYpY corresponds to excimer formation, since 420 nm region corresponds to a roughly 100 nm shift from the monomer emission maximum (approximately at 330 nm).
pY and pYpY peptides were titrated into 250 μM of compound 4 in complex with Zn^2+ (triflate salt) in pH 7.5 50 mM HEPES, 10% DMSO. […] Time-resolved experiments were also conducted, where the delay time prior to acquisition of fluorescence was varied (0, 5, 10, and 15 μs; FIG. 21). In this case, the concentration of compound 4 in complex with Zn^2+ (triflate salt) was constant at 40 μM.
pY and pYpY peptides were also titrated into 250 μM of compound 5 in complex with Zn^2+ (triflate salt) in pH 7.5, 50 mM HEPES, 10% DMSO. The fluorescence emission spectra (FIG. 23) indicate a pYpY-selective enhancement in the excimer region of the fluorophore.

[1] = test system: proximally phosphorylated proteins (α-casein, β-casein and D-α-casein); test: In-solution detection of proteins; assay type: binding, Bos taurus; details: Zn^2+ (triflate salt) complexes; pH 7.5, 50 mM HEPES, 75 mM NaCl, 20% DMSO
Excerpt: Non-phosphorylated (BSA and lysozyme) and distally phosphorylated negative control proteins (ovalbumin) were used in detection methods for in-solution, on gel and on blot applications. Dephosphorylated α-casein (D-α-casein), β-casein and α-casein served as proximally phosphorylated positive controls (see Table 2). The phosphosites presented in Table 2 were obtained from the PhosphoSitePlus database or a UniProt database.
Various conditions for the detection of proximally phosphorylated proteins and proteins in aqueous solution are shown in Table 3. Proteins were dissolved in a buffer at various concentrations (normally 100 μM to 40 nM), and combined with 40 μM of compound 1 in complex with Zn^2+ (triflate salt) dissolved in the same buffer on a 384 well flat bottom black plate. The mixture was incubated for 20 minutes and fluorescence emission intensity at 476 nm (10-20 nm bandwidth) was measured using a Tecan M1000 microplate reader, upon excitation at 350 nm (5 nm bandwidth) at 400 Hz. The different conditions tested were assessed based on the ratios of signal intensity of positive to negative control analytes and signal intensity in general. Among the parameters assessed in this study and using these specific control proteins, the following conditions were selected for proteins studies: pH 5.5 50 mM NaOAc, 50 mM NaCl, 5% DMSO (see FIG. 27). […] Depending on the number of proximally di-phosphorylated sites, lower detection limits could be achieved by using lower concentration of a sensor.
Using same methods as described in Example 1.1c, Zn^2+ (triflate salt) complexes of compounds 1 (top left), compound 9 (top right), compound 15 (middle left), and compound 14 (middle right) were tested in pH 7.5, 50 mM HEPES, 75 mM NaCl, 20% DMSO (see FIG. 28).
Using same methods as described in Example 14, 40 and 20 μM of Zn^2+ (triflate salt) complexes of compound 1 (top) and compound 12 (bottom) (FIG. 29), were tested in pH 7.5, 50 mM HEPES, 5% DMSO.
Using same methods as described above, 60, 40, 20 and 10 μM of Zn^2+ (triflate salt) complexed with compound 12 (FIG. 30), were titrated with 80-0.04 μM of proteins in pH 7.5, 50 mM HEPES, 5% DMSO.

[2] = test system: proximally phosphorylated peptides; test: Detection of proximally phosphorylated peptides in aqueous solution (384 well plate, emission 476 nm); assay type: binding; details: Zn^2+ (triflate salt) complexes; pH 7.5, 50 mM HEPES, 25 mM NaCl, 10% propylene glycol
Protocol: In one example 40 μM of compound 1 pre-metallated with zinc(II) triflate (referred to as “Zn^2+ pre-metallation” in FIG. 13; procedure described in example) was titrated with 80-0.04 μM of pY and pYpY peptides in 50 mM HEPES pH 7.5, 5% DMSO. In another example, 40 μM of compound 1 was dissolved in 50 mM HEPES pH 7.5, 5% DMSO, which contained 40 μM of zinc(II) triflate (referred to as “in situ Zn^2+ metallation” in FIG. 13) and was titrated with 80-0.04 μM of pY and pYpY peptides. Fluorescence measurements were performed as described in Example 2.
Various conditions for the detection of proximally phosphorylated peptides and proteins in aqueous solution are shown in Table 1. For the screens, analytes (peptides) were dissolved in a specific buffer at various concentrations (normally 100 μM to 40 nM), and combined with 40 μM of compound 1 in complex with Zn^2+ (triflate salt) dissolved in the same buffer on a 384 well flat bottom black plate. The mixture was incubated for 20 minutes and fluorescence emission intensity at 476 nm (10-20 nm bandwidth) was measured using a Tecan M1000 microplate reader, upon excitation at 350 nm (5 nm bandwidth) at 400 Hz. The different conditions tested were assessed based on the ratios of signal intensity of positive to negative control analytes and signal intensity in general.
Peptides containing two phosphotyrosine residues, spaced by 2-5 alanine residues, were titrated into 40 μM solution of compound 1 in complex with Zn^2+ (triflate salt) (pH 7.5 50 mM HEPES, 10% propylene, 25 mM NaCl) from 80 μM to 40 nM (FIG. 16). Y-axis is Δ Fluorescence Intensity as defined by the formula in example 2.
Using the same methods as described in Example 6, Zn^2+ (triflate salt) complexes of compounds 1, compound 9, compound 15, compound 14 were tested in pH 7.5, 50 mM HEPES, 25 mM NaCl, 10% propylene glycol.
Using the same methods as described in Example 6, Zn^2+ (triflate salt) complexes of compound 1 and compound 12 were tested in pH 7.5, 50 mM HEPES, 5% DMSO.

melting point [°C] | Structure (SMILES) | excimer emission peak in response to pYpY peptide in fluorescence emission spectra (pYpY peptide) | efficiency at detecting the proximally phosphorylated proteins [1] | also measured
– | O=C(O)CN(CC(=O)O)c1ccccc1OCCOc1cc(NC(=O)c2ccc3ccc4cccc5ccc2c3c45)ccc1N(CC(=O)O)CC(=O)O [compound 8, 2,2′-((2-(2-(2-(bis(carboxymethyl)amino)-5-(pyrene-1-carboxamido)phenoxy)ethoxy)phenyl)azanediyl)diacetic acid] | – | – | selectivity for β-casein after 2 h destaining (β-casein; 80 μM compound, 1:1 GaCl3, stained 1 h): improved; β-casein over distally phosphorylated ovalbumin (β-casein; 80 μM compound, 1:1 GaCl3, stained 1 h, 40 h destaining, 1 μg per protein): 4.5 fold; selectivity for β-casein with more than 1:1 equivalent of compound:GaCl3 (β-casein; 50 mM NaOAc pH 4.5, 50 mM NaCl, 10% DMSO, 160 or 240 μM GaCl3): did not result in good selectivity; selective staining for β-casein, no destaining (β-casein; 100 mM NaOAc pH 4.5, 150 mM NaCl, 20% propylene glycol, 1:1 and 1:1.5 compound:GaCl3, stained 1.5 h): did not result in selective staining; staining of β-casein band following 16 h destain (β-casein; 100 mM NaOAc pH 4.5, 150 mM NaCl, 20% propylene glycol, destain 50 mM NaOAc, pH 4.0, 20% acetonitrile): most prominently stained band
– | c1ccc2c(CN3CCNCCNCCNCC3)cccc2c1 [compound 4, 1-(naphthalen-1-ylmethyl)-1,4,7,10-tetraazacyclododecane] | No distinct peak | – | peak when pYpY spectra are divided by those of pY or buffer control (pYpY peptide): distinct peak in the 420 nm region; detection limit of pYpY peptide, selectively over pY peptide (pYpY peptide): single-digit; signal selectivity towards pYpY with 15 μs delay time (pYpY peptide; time-resolved, 40 μM compound in complex with Zn^2+): retained
83 to 86 | O=C(CCCc1ccc2ccc3cccc4ccc1c2c34)N1CCNCCNCCNCC1 | – | – | –
55 to 60 | c1cc2ccc3ccc(CCCCOCc4cc(CN5CCNCCNCCNCC5)cc(CN5CCNCCNCCNCC5)c4)c4ccc(c1)c2c34 | – | – | –
75 to 79 | O=C(Cc1ccc2ccc3cccc4ccc1c2c34)N1CCNCCNCCNCC1 | – | – | –
– | c1cc2ccc3ccc(CCCCN4CCNCCNCCNCC4)c4ccc(c1)c2c34 [compound 9, 1-(4-(pyren-1-yl)butyl)-1,4,7,10-tetraazacyclododecane] | – | comparable efficiency | sensitivity for peptides in which the two phosphorylated tyrosine residues are more spaced out, vs compound 1 [2]: increased
– | c1ccc2cc(CN3CCNCCNCCNCC3)ccc2c1 [compound 5, 1-(naphthalen-2-ylmethyl)-1,4,7,10-tetraazacyclododecane] | No distinct peak | – | peak when pYpY spectra are divided by those of pY or buffer control (pYpY peptide): distinct peak in the 420 nm region; detection limit of pYpY peptide, selectively over pY peptide (pYpY peptide): single-digit
– | c1ccc2c(c1)cc(CN1CCNCCNCCNCC1)c1ccccc12 [compound 6, 1-(phenanthren-9-ylmethyl)-1,4,7,10-tetraazacyclododecane] | No distinct peak | – | –

Structure (SMILES) | melting point [°C] | excimer emission peak in response to pYpY peptide in fluorescence emission spectra (pYpY peptide) | efficiency at detecting the proximally phosphorylated proteins [1] | also measured
c1ccc(CN(Cc2ccccn2)Cc2ccc3ccc4cccc5ccc2c3c45)nc1 [compound 14, 1-(pyren-1-yl)-N,N-bis(pyridin-2-ylmethyl)methanamine] | 108 to 112 | – | comparable efficiency | –
c1ccc(CN(CCCCc2ccc3ccc4cccc5ccc2c3c45)Cc2ccccn2)nc1 [compound 15, 4-(pyren-1-yl)-N,N-bis(pyridin-2-ylmethyl)butan-1-amine] | 61 to 62 | – | comparable efficiency | –
